Experimental data published in publication PMC5357154 (Cell chemical biology, 2017).

Key:
[1] = system: caspases in HeLa and THP-1 cells; experiment: Caspase inhibition across cell culture assays; format: cell-based, human; settings: NSAIDs up to 500 μM
[2] = target: T1, caspase-9 (Homo sapiens, UniProt P55211); experiment: Caspase catalytic activity IC50 determination, caspase-9; format: biochemical; settings: 200 nM enzyme, 6.5 μM LEHD substrate, tested 26.1 nM to 66 μM
T1 sequence (P55211 1-315 limits assumed): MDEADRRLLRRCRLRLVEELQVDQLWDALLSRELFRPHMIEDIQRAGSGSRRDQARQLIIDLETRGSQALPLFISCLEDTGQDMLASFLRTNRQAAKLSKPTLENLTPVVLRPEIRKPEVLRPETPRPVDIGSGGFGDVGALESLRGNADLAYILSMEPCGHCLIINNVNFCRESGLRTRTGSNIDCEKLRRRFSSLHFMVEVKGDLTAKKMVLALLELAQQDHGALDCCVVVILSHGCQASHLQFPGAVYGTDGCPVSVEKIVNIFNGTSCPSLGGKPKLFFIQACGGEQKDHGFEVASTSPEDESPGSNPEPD
T1 sequence (P55211 331-416 limits assumed): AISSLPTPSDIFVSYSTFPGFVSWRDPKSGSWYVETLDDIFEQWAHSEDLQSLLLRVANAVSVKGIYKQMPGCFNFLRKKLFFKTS

[3] = target: T2, caspase-4 (Homo sapiens, UniProt P49662); experiment: Caspase catalytic activity IC50 determination, caspase-4; format: biochemical; settings: 1 nM enzyme, 10 μM LEHD substrate, tested 26.1 nM to 66 μM
T2 sequence (P49662 81-270 limits assumed): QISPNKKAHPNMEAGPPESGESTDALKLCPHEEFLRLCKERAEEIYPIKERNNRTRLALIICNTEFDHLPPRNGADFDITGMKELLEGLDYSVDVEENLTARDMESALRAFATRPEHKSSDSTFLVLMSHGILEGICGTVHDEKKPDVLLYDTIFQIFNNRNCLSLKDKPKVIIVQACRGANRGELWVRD
T2 sequence (P49662 290-377 limits assumed): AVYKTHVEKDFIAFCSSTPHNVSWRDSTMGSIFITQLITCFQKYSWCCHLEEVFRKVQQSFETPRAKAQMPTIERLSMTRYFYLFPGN

[4] = target: T3, caspase-3 (Homo sapiens, UniProt P42574); experiment: Caspase-3 tryptophan fluorescence quenching; format: binding
T3 sequence (P42574 29-175 limits assumed): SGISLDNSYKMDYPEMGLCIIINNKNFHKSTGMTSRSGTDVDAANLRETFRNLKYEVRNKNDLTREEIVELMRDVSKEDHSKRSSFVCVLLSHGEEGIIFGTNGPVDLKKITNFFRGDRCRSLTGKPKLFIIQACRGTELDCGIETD
T3 sequence (P42574 176-277 limits assumed): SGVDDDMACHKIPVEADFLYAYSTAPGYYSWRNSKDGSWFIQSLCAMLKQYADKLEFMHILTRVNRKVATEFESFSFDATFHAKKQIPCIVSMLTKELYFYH

[5] = target: T4, caspase-1 (Homo sapiens, UniProt P29466); experiment: Caspase catalytic activity IC50 determination, caspase-1; format: biochemical; settings: 2.5 nM enzyme, 6.5 μM WEHD substrate, tested 26.1 nM to 66 μM
T4 sequence (P29466 120-297 limits assumed): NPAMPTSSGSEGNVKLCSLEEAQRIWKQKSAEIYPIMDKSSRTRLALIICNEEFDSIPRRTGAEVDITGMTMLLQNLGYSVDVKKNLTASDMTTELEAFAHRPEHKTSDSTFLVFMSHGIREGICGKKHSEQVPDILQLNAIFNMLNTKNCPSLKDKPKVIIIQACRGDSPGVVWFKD
T4 sequence (P29466 317-404 limits assumed): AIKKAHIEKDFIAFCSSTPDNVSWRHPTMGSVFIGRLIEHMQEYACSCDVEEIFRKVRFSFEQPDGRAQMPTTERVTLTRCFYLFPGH

[6] = target: T3, caspase-3; experiment: Caspase catalytic activity IC50 determination, caspase-3; format: biochemical; settings: 200 nM enzyme, 3.3 μM DEVD substrate, tested 26.1 nM to 66 μM
[7] = target: T5, caspase-5 (Homo sapiens, UniProt P51878); experiment: Caspase catalytic activity IC50 determination, caspase-5; format: biochemical; settings: 20 nM enzyme, 10 μM LEHD substrate, tested 26.1 nM to 66 μM
T5 sequence (P51878 137-327 limits assumed): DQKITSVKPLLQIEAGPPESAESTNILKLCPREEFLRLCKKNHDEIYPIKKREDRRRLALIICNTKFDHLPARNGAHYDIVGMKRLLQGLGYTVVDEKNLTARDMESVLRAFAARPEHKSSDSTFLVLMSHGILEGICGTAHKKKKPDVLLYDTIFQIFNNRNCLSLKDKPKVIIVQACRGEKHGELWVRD
T5 sequence (P51878 347-434 limits assumed): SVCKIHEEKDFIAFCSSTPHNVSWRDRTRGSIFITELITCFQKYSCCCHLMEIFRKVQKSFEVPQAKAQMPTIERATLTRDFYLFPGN

IC50 [2] | IC50 [3] | Kd [4] [µM] | IC50 [5] | IC50 [6] | IC50 [7] | SMILES | caspase inhibitory capability, rank order across cellular assays [1]
No activity | No activity | 1290 ± 10 | No activity | No activity | No activity | CC(=O)Oc1ccccc1C(=O)O [Aspirin] | ineffective
 |  |  |  |  |  | O=C(O)CCC(=O)c1ccc(-c2ccccc2)cc1 [Fenbufen] | substantial inhibitory capabilities
 |  |  | No activity |  |  | CC(C)Cc1ccc(C(C)C(=O)O)cc1 (stereo not shown) [Ibuprofen] | weak inhibitors
 |  | 30 ± 2 |  |  |  | CC(C(=O)O)c1ccc(N2Cc3ccccc3C2=O)cc1 (stereo not shown) [Indoprofen] | substantial inhibitory capabilities
 |  |  |  |  |  | COc1ccc2cc([C@H](C)C(=O)O)ccc2c1 [Naproxen] | weak inhibitors
